row,melting point,SMILES
1,99 to 101 °C,CC(C)(Oc1ccc(CCC(=O)c2cc(-c3ccc(C(F)(F)F)cc3)cs2)c(Cl)c1Cl)C(=O)O
2,120 °C,C=CCOc1cc(-n2c(=O)cc(C(F)(F)F)n(C)c2=O)c(F)cc1Br
3,113 to 117 °C,COC(=O)c1cc(C=O)cnc1C1=NC(C)(C(C)C)C(=O)N1 (stereo not given)
4,152 to 155 °C,CON(Cc1ccc(F)cc1Cl)C(=O)C1=C(O)C(=O)N(C)C1
5,218 to 219 °C,COc1cc(OC)c2c(=O)[nH]c(-c3cc(C)c(OCCn4ccnc4)c(C)c3)nc2c1
6,76.5 to 77 °C,CCCn1nnn(-c2cc(OC(C)C)c(F)cc2F)c1=O
7,121 to 123 °C,Cc1ccc(Oc2nc3ccc(N=C=S)cc3s2)cc1
8,100 to 101 °C,COC(=O)CCCc1cc2nc(Cl)ccc2n1S(=O)(=O)c1ccc(Cl)cc1Cl
9,57 to 59 °C,COC(=O)CCCCc1ccc(CCNC(C)=O)cc1
10,78 to 80 °C,COc1ccc2c(c1)C(=O)C(=O)C=C2
11,112 °C,COCCOc1ccc(/C=C/C(=O)O)c(OCC2CCCCC2)c1
12,156 to 158 °C,CN(c1cccc2cc(C3=NCC(CC(C)(C)O)S3)[nH]c12)S(=O)(=O)c1cccs1 (stereo not given)
13,54 to 55 °C,CCOC(=O)C(C(=O)OCC)c1ccc(Br)cc1[N+](=O)[O-]
14,144 °C,COC(=O)n1cc(Cl)c(-c2cc(Cl)cc(Cl)c2)n1
15,160 to 162 °C,COc1cc(C(=O)O)cc(OC)c1CC(C)C
16,209 to 211 °C,CSC1NC(=O)N(Cc2ccco2)C(=O)N1
17,156 to 157 °C,COc1cc(-c2cc(O)c(SCc3ccccc3)c(=O)o2)cc(OC)c1OC
18,106 to 110 °C,CC(C)c1nn2ccccc2c1C(=O)C1CCCC1
19,113 to 114 °C,COc1ccc(CS[C@H]2C[C@@H](C(N)=O)N(C)C2)cc1
20,126 to 127 °C,CCOC(=O)C1=C(COCc2nnn(CCN)n2)NC(C)=C(C(=O)OC)C1c1ccccc1Cl (stereo not given)
21,174 °C,CN1CCCC(C2=C(C#N)C(c3cccc(C#N)c3Br)c3c[nH]nc3N2)C1 (stereo not given)
22,174 to 175 °C,CC/C=C(\c1ccccc1N1CCCCC1)C(C(N)=O)c1ccc(C(=O)O)cc1 (stereo not given)

row,melting point,SMILES
1,127 °C,COC(=O)c1cc(NCc2c(F)c(F)c(C(F)(F)F)c(F)c2F)ccc1O
2,119 to 121 °C,CCCc1cc(CCC)c2oc(C(=O)c3ccc(OC)cc3)c(C)c2c1O
3,124 to 127 °C,CCOC(=O)c1cc(=O)c2cccc(COc3ccc(OCc4ccc5ccccc5n4)cc3)c2o1
4,224 to 225 °C,Cn1ncc(C(=O)N2CCOCC2)c1C(=O)Nc1cc2nc(-c3ccccc3)nn2cc1F
5,140 to 142 °C,COc1ccc(CN2C(=O)[C@@H](Cl)[C@H]2[C@@H]2COC(C)(C)O2)c(OC)c1
6,170 °C,CCCNCCC(=O)Nc1ccc2c(c1)C(=O)c1cc(NC(=O)CCNCCC)ccc1C2=O
7,140 to 142 °C,N#Cc1c[nH]cc1-c1cccc(F)c1
8,182 to 185 °C,O=C(Nc1nc(=O)n(S(=O)(=O)c2ccccc2)cc1F)Oc1ccccc1
9,297 to 300 °C,CCCc1nn(C)c2c(=O)[nH]c(Cc3ccc(-n4cnnc4)cc3)nc12
10,110 to 111 °C,CCCCC(=O)N(CCCCO)Cc1ccc(-c2ccccc2-c2nnn[nH]2)cc1
11,174 to 176 °C,NC1CCN(c2ncc3ncnc(Nc4ccc(F)c(Cl)c4)c3n2)C1 (stereo not given)
12,141 °C,Cc1ccc(S(=O)(=O)OC[C@H]2CN(c3ccc(N4CCSCC4)c(F)c3)C(=O)O2)cc1
13,119 to 121 °C,CC(C)(C#N)c1cc(CCl)cc(C(C)(C)C#N)c1
14,75 °C,OC(CNCCc1ccsc1)c1ccccc1 (stereo not given)
15,> 250 °C,CCNC(=O)c1ccccc1Nc1nc(Nc2cc3c(cc2OC)CC(=O)NCC3)ncc1Cl
16,137 to 140 °C,COc1ccc(S(=O)(=O)Nc2ccc(COc3ccc4c(c3)CCC(CN(C)C)C4)cc2)cc1 (stereo not given)
17,194 to 196 °C,NS(=O)(=O)c1c(Cl)nc2ccc(C3CC3)nn12
18,154 to 156 °C,CC(=O)OC1CC2CCC3C4CCC(C(C)=O)C4(C)CC(=O)C3C2(C)CC1Br (stereo not given)
19,178 to 179 °C,Cc1ccccc1COCC1OC(n2cc(C(F)(F)F)c(=O)[nH]c2=O)CC1O (stereo not given)
20,154 °C,COc1ccccc1C(=O)c1cccc2c1ccn2S(=O)(=O)c1ccc(C)cc1
21,210 °C,CC1(C)CCc2c(N3CCOCC3)nc3sc4c(NCCCN5CCCC5=O)ncnc4c3c2C1
22,198 to 199 °C,CCOc1ccc(C2C(C(=O)c3ccc(C(C)C)cc3)=C(O)C(=O)N2c2ccc(C)nn2)nc1 (stereo not given)

row,melting point,SMILES
1,120 to 122 °C,CC(Nc1nc(NN)nc(Cl)c1-c1c(F)cccc1Cl)C(F)(F)F (stereo not given)
2,155 to 158 °C,Nc1nonc1-c1nc2ccccc2n1COc1ccc(F)cc1
3,229 to 230 °C,CCOP(=O)(OCC)c1ccc(NC(=O)C2Cc3c(cccc3C(C)C)C(=O)CS2(=O)=O)cc1 (stereo not given)
4,149 to 151 °C,Cn1nc(SC2c3cc(C#N)ccc3CC(C)(C)C2O)ccc1=O (stereo not given)
5,67 to 69 °C,O=C(NC(Cc1ccccc1)c1ccc(O)cc1)C(c1ccccc1)c1ccccc1 (stereo not given)
6,202 to 204 °C,COc1cccc(/C=C/C2=CCN(Cc3nc4ccccc4[nH]3)CC2)c1
7,238 to 239 °C,O=C(O)c1ccc(F)cc1Nc1ccc(I)cc1Cl
8,208 °C,NNc1nc2ccc(OC(F)(F)F)cc2s1
9,154 to 156 °C,COCCOc1ccc(/C=C/COC(=O)NS(=O)(=O)NCCN2CCCC2)c(Oc2ncc(C(F)(F)F)cc2Cl)c1
10,157 to 158 °C,O=C(O)c1cccc(NC(=S)Nc2ccc3c(Cl)c(OCCBr)oc(=O)c3c2)c1
11,62 to 65 °C,CCCCCCCCCCC(O)Cn1ccnc1-c1ccccn1 (stereo not given)
12,160 to 162 °C,Nc1c(-c2cc(Cl)ccc2O)c2cc(I)ccc2[nH]c1=O
13,205 to 209 °C,CN(Cc1ccc(NC(=O)C2=Cc3cc(-c4ccc(C(F)(F)F)cc4)ccc3OCC2)cc1)C1CCOCC1
14,61 °C,CCCCCc1ccc(OC(=O)c2ccc(OCC)c(F)c2F)cc1
15,96.5 °C,N#CC(C#N)(CC=C(Cl)Cl)Cc1ccc(OC(F)(F)F)cc1
16,194 to 196 °C,CCn1cnc(/C=C/c2cn(-c3ccccc3)nc2OCc2ccc(OCc3nc(-c4ccc(CC(=O)O)cc4)oc3C)c(OC)c2)c1
17,104 to 106 °C,CC1COc2cc(NC(=O)OCc3ccccc3)ccc2N1C(=O)OCc1ccccc1 (stereo not given)
18,185 to 186 °C,CC(=O)Oc1cc(C)cc(C(=O)N[C@@H](Cc2ccccc2)[C@H](OC(C)=O)C(=O)O)c1C
19,139 to 140 °C,NC(=O)c1ccc(F)c(-c2cccc3cc(Cc4cccc(C(F)(F)F)c4)sc23)c1
20,119 to 123 °C,C=CCc1cc(C(=O)O)ccc1O
21,246 to 248 °C,CC(=O)N(C)c1ccc2sc3ccccc3c(=O)c2c1
22,78 to 80 °C,O=CN1CCn2nccc21

row,SMILES,melting point
1,COC(=O)[C@H](c1ccccc1Cl)N1CCc2sc(OC(=O)N(C)C)cc2C1,96 to 98 °C
2,CC(C)(C)c1cc(-n2nc3ccc(C(F)(F)F)cc3n2)c(O)c(C(C)(C)C)c1,131 to 133 °C
3,CC(C)(C)OC(=O)C1C(C=CC(=O)O)C1(C)C (stereo not given),94 °C
4,CC12CCC3C(CC=C4CCCCC43C)C1CC(O)C2=O (stereo not given),168 to 172 °C
